Test results as given in paper PMC12867150, “A fungi-derived cyclic peptide enhances Th9-mediated antitumor immunity by targeting ZAP70 and SREBP1” (The Journal of Clinical Investigation, 2025).

What was measured:
[1] = test system: B16-OVA melanoma; assay: Adoptive transfer of OT-II Th9 cells, B16-OVA tumor growth in β2m-KO mice (Figure 2H); format: in vivo; details: result in words
Excerpt: (A) Schematic of the therapeutic model. C57BL/6 mice were subcutaneously inoculated with B16-OVA melanoma cells (5 × 10^5) and preconditioned with cyclophosphamide (CTX) on day 4. […] (B–G) Flow-cytometric analysis of transferred CD45.1^+ OT-II Th9 cells (B and C) and endogenous CD4^+ (D and E) and CD8^+ T cells (F and G) in spleens and tumors, showing frequencies and absolute numbers (n = 4 mice per group). (H) Tumor growth curves in B16-OVA–bearing C57BL/6 or β2-microglobulin–deficient (β2m-KO) mice following transfer of control or EpA-treated OT-II Th9 cells (n = 4 mice per group). (I) C57BL/6 mice bearing B16-OVA tumors were treated with control or EpA-induced OT-II Th9 cells (2 × 10^6, i.v., day 5), followed by anti–PD-1 antibody (200 μg, i.p.) on day 7, and (100 μg, i.p.) on day 10 and 12. Tumor growth is shown with individual trajectories (n = 6 mice per group). Statistical analysis was performed using 2-tailed unpaired Student’s t test ([…], B–G) or 1-way ANOVA with Tukey’s post hoc test (H and I). All data are presented as the mean ± SEM. *P < 0.05, **P < 0.01, ***P < 0.001. Schematic in A created using BioRender (https://Biorender.com).
To directly assess the requirement for endogenous CD8^+ T cells, we utilized β2-microglobulin–deficient (β2m-KO) mice, which lack functional MHC class I and are therefore devoid of CD8^+ T cells ([32]). […]

[2] = test system: AKT, mTOR, and NF-κB signaling components; assay: Immunoblot of AKT, mTOR and NF-κB components (S7D); format: cell-based, mouse; details: result in words
Method: Detailed lysis conditions, SDS–PAGE and transfer procedures, primary/secondary antibodies (including clones and catalog numbers), molecular weight markers, ECL detection, and ImageJ (NIH) quantification are described in Supplemental Methods.
MH9A4, Biolegend, Cat. No. 507605, PE/Cy7, clone MH9A4, Biolegend, Cat. No. […]
clone Mab11, Biolegend, Cat. No. 502908), Perforin (APC, clone dG9, Biolegend, Cat.
Flow cytometric acquisition was performed using a BD Fortessa or Cytek Aurora cytometer. Data were analyzed with FlowJo software (v10.8.1 or newer). Fluorescence compensation, isotype-matched controls, and fluorescence-minus-one (FMO) controls were applied as appropriate for multicolor panel validation.
Cells were washed twice with PBS and lysed in 1 × lysis buffer (NCM, Cat. No.
WB3100) supplemented with a protease inhibitor cocktail (Solarbio, Cat. No. P1260).
Protein lysates were separated by SDS-polyacrylamide gel electrophoresis (SDS-PA G E ; YEASEN, Cat. No. 20325ES62) and transferred to PVDF membranes for […]
Membranes were probed with the following primary antibodies: ERK1/2 (clone […]
BioLegend, Cat. No. 369502), MEK1/2 (clone L38C12, Cell Signaling Technology, Cat.
No. 4694S), phospho -MEK1/2 (clone 41G9, Cell Signaling Technology, Cat. No. […]
(Proteintech, Cat. No. 10745 -1-AP), Total Akt (Cell Signaling Technolo gy, Cat. No. […]

In the case of anteiso-C15 Leu7 surfactin [EpA], the “enhanced antitumor efficacy in β2m-KO hosts” value [1] is reported as “completely abolished”, the “AKT and NF-κB component phosphorylation” value [2] is reported as “not of AKT or NF-κB components” and the “total and phosphorylated mTOR levels” value [2] is reported as “remained unchanged”.
